Results: US6992079B2, “Substituted 11-phenyl-dibenzazepine compounds useful for the treatment or prevention of diseases characterized by abnormal cell proliferation” (President Fellows of Harvard College, priority 1997, dated 2006)
Like-named read-outs stand apart in the source and are kept apart here.

Tests used:
[1] = test system: A549; experiment: SRB antiproliferative assay; type: cell-based; conditions: Homo sapiens, A549, A549 (Lung), 5% FCS/5 day incubation
Description: (§1) The cells were passaged using Trypsin (Gibco).

[2] = test system: HEPG2; experiment: SRB antiproliferative assay; type: cell-based; conditions: Homo sapiens, HepG2, HEPG2 (Hepatocel), 5% FCS/5 day incubation
Description: as §1

[3] = test system: HT29; experiment: SRB antiproliferative assay; type: cell-based; conditions: Homo sapiens, HT-29, HT29 (Colon), 5% FCS/5 day incubation
Description: as §1

[4] = test system: HeLa; experiment: SRB antiproliferative assay; type: cell-based; conditions: Homo sapiens, HeLa (Cervical), 5% FCS/5 day incubation
Description: as §1

[5] = test system: MCF7; experiment: SRB antiproliferative assay; type: cell-based; conditions: Homo sapiens, MCF7, MCF7 (Breast), 5% FCS/5 day incubation
Description: as §1

[6] = test system: U118MG; experiment: SRB antiproliferative assay; type: cell-based; conditions: Homo sapiens, U-118-MG, U118MG (CNS), 5% FCS/5 day incubation
Description: as §1

[7] = test system: A2058 metastatic melanoma; experiment: Mouse xenograft tumor growth; type: in vivo, CD-1 nude mice
Procedure: NCI-A2058 human melanoma cell line was grown as monolayer culture in Minimum essential medium (D-MEM) supplemented with 10% fetal bovine serum (FBS), 0.1 mM non-essential amino acid, 1.0 mM sodium pyruvate, 100U/ml penicillin, 100 μg/ml streptomycin and 0.25 μg/ml amphotericin B and L-alanyl-1-glutamine (2 mM) at 37° C. in an atmosphere of 5% CO2 in air. The tumor cells were routinely subcultured twice weekly by trypsin-EDTA treatment. The cells were harvested from subconfluent logarithmically growing culture by treatment with typsin-EDTA and counted for tumor inoculation.
An acclimation period of at least 7 days were allowed between animal receipt and commence of tumor inoculation. When the female CD-1 nude mice were more than 6-7 weeks of age (20-25 g), each mouse was subcutaneously injected with 5.0×10^6 NCI-A2058 human melanoma cells in 0.1 ml of PBS solution at the right flank of the mice to induce tumor growth.

[8] = test system: SR; experiment: In-Vitro Testing SRB panel: Leukemia; type: cell-based
[9] = test system: ROP-62; type: cell-based
[10] = test system: COLO 205; experiment: In-Vitro Testing SRB panel: Colon Cancer; type: cell-based
[11] = test system: SF-268; experiment: In-Vitro Testing SRB panel: CNS Cancer; type: cell-based
[12] = test system: SF-539; experiment: In-Vitro Testing SRB panel: CNS Cancer; type: cell-based
[13] = test system: U251; experiment: In-Vitro Testing SRB panel: CNS Cancer; type: cell-based
[14] = test system: SK-MEL-2B; experiment: In-Vitro Testing SRB panel: Melanoma; type: cell-based
[15] = test system: IGROV1; experiment: In-Vitro Testing SRB panel: Ovarian Cancer; type: cell-based
[16] = test system: SN12C; experiment: In-Vitro Testing SRB panel: Renal Cancer; type: cell-based
[17] = test system: PC-3; experiment: In-Vitro Testing SRB panel: Prostate Cancer; type: cell-based
[18] = test system: OVCAR-3; experiment: In-Vitro Testing SRB panel: Ovarian Cancer
[19] = Homo sapiens, read-out: LC50 (the source's name)

COc1ccc2c(c1)CN(C(=O)c1ccc([N+](=O)[O-])cc1)c1ccc(Cl)cc1C2c1ccccc1Cl (centres unmarked) [Compound 30]
IC50 [1]: 1.5 µM
IC50 [2]: 0.9 µM
IC50 [3]: 0.6 µM
IC50 [4]: 0.5 µM
IC50 [5]: 1.3 µM
IC50 [6]: 0.8 µM
tumor growth [7]: showed inhibition of tumor growth
TGI [8]: >1.00E−04 Molar
GI50 ([8]; Homo sapiens): 0.455 µM
CC50 [8, 19]: > 100 µM
Percent Growth ([8]; Log10 concentration −4.0 Molar): 23%
Percent Growth ([8]; Log10 concentration −5.0 Molar): 12%
Percent Growth ([8]; Log10 concentration −6.0 Molar): 32%
Percent Growth ([8]; Log10 concentration −7.0 Molar): 85%
Percent Growth ([8]; Log10 concentration −8.0 Molar): 77%
GI50 ([9]; Homo sapiens): > 100 µM
CC50 ([9]; Homo sapiens, ROP-62, read-out: LC50 (the source's name)): > 100 µM
TGI ([9]; ROP-62): >1.00E−04 Molar
Percent Growth ([9]; ROP-62, Log10 concentration −4.0 Molar): 50%
Percent Growth ([9]; ROP-62, Log10 concentration −5.0 Molar): 67%
Percent Growth ([9]; ROP-62, Log10 concentration −6.0 Molar): 95%
Percent Growth ([9]; ROP-62, Log10 concentration −7.0 Molar): 102%
Percent Growth ([9]; ROP-62, Log10 concentration −8.0 Molar): 96%
TGI ([10]; COLO 205): >1.00E−04 Molar
Percent Growth ([10]; COLO 205, Log10 concentration −4.0 Molar): 43%
Percent Growth ([10]; COLO 205, Log10 concentration −5.0 Molar): 46%
Percent Growth ([10]; COLO 205, Log10 concentration −6.0 Molar): 68%
Percent Growth ([10]; COLO 205, Log10 concentration −7.0 Molar): 87%
Percent Growth ([10]; COLO 205, Log10 concentration −8.0 Molar): 93%
GI50 ([10]; Homo sapiens, COLO 205): 6.64 µM
CC50 ([10]; Homo sapiens, COLO 205, read-out: LC50 (the source's name)): > 100 µM
GI50 ([11]; Homo sapiens, SF-268): 3.08 µM
CC50 ([11]; Homo sapiens, SF-268, read-out: LC50 (the source's name)): > 100 µM
TGI ([11]; SF-268): >1.00E−04 Molar
Percent Growth ([11]; SF-268, Log10 concentration −4.0 Molar): 21%
Percent Growth ([11]; SF-268, Log10 concentration −5.0 Molar): 30%
Percent Growth ([11]; SF-268, Log10 concentration −6.0 Molar): 69%
Percent Growth ([11]; SF-268, Log10 concentration −7.0 Molar): 115%
Percent Growth ([11]; SF-268, Log10 concentration −8.0 Molar): 104%
GI50 ([12]; Homo sapiens, SF-539): 3.87 µM
CC50 ([12]; Homo sapiens, SF-539, read-out: LC50 (the source's name)): > 100 µM
TGI ([12]; SF-539): >1.00E−04 Molar
Percent Growth ([12]; SF-539, Log10 concentration −4.0 Molar): 20%
Percent Growth ([12]; SF-539, Log10 concentration −5.0 Molar): 33%
Percent Growth ([12]; SF-539, Log10 concentration −6.0 Molar): 75%
Percent Growth ([12]; SF-539, Log10 concentration −7.0 Molar): 92%
Percent Growth ([12]; SF-539, Log10 concentration −8.0 Molar): 93%
GI50 ([13]; Homo sapiens, U-251): 5.1 µM
CC50 ([13]; Homo sapiens, U-251, U251, read-out: LC50 (the source's name)): > 100 µM
TGI ([13]; U251): >1.00E−04 Molar
Percent Growth ([13]; U251, Log10 concentration −4.0 Molar): 37%
Percent Growth ([13]; U251, Log10 concentration −5.0 Molar): 37%
Percent Growth ([13]; U251, Log10 concentration −6.0 Molar): 81%
Percent Growth ([13]; U251, Log10 concentration −7.0 Molar): 103%
Percent Growth ([13]; U251, Log10 concentration −8.0 Molar): 94%
GI50 ([14]; Homo sapiens, SK-MEL-28): > 100 µM
CC50 ([14]; Homo sapiens, SK-MEL-28, read-out: LC50 (the source's name)): > 100 µM
TGI ([14]; SK-MEL-28): >1.00E−04 Molar
Percent Growth ([14]; SK-MEL-28, Log10 concentration −4.0 Molar): 65%
Percent Growth ([14]; SK-MEL-28, Log10 concentration −5.0 Molar): 70%
Percent Growth ([14]; SK-MEL-28, Log10 concentration −6.0 Molar): 86%
Percent Growth ([14]; SK-MEL-28, Log10 concentration −7.0 Molar): 100%
Percent Growth ([14]; SK-MEL-28, Log10 concentration −8.0 Molar): 101%
GI50 ([15]; Homo sapiens, IGROV-1): 6.35 µM
CC50 ([15]; Homo sapiens, IGROV-1, IGROV1, read-out: LC50 (the source's name)): > 100 µM
TGI ([15]; IGROV1): >1.00E−04 Molar
Percent Growth ([15]; IGROV1, Log10 concentration −4.0 Molar): 36%
Percent Growth ([15]; IGROV1, Log10 concentration −5.0 Molar): 41%
Percent Growth ([15]; IGROV1, Log10 concentration −6.0 Molar): 86%
Percent Growth ([15]; IGROV1, Log10 concentration −7.0 Molar): 97%
Percent Growth ([15]; IGROV1, Log10 concentration −8.0 Molar): 97%
TGI [16]: >1.00E−04 Molar
GI50 ([16]; Homo sapiens): 6.32 µM
CC50 [16, 19]: > 100 µM
Percent Growth ([16]; Log10 concentration −4.0 Molar): 45%
Percent Growth ([16]; Log10 concentration −5.0 Molar): 41%
Percent Growth ([16]; Log10 concentration −6.0 Molar): 87%
Percent Growth ([16]; Log10 concentration −7.0 Molar): 90%
Percent Growth ([16]; Log10 concentration −8.0 Molar): 100%
GI50 ([17]; Homo sapiens, PC-3): 1.33 µM
CC50 ([17]; Homo sapiens, PC-3, read-out: LC50 (the source's name)): > 100 µM
TGI ([17]; PC-3): >1.00E−04 Molar
Percent Growth ([17]; PC-3, Log10 concentration −4.0 Molar): 30%
Percent Growth ([17]; PC-3, Log10 concentration −5.0 Molar): 29%
Percent Growth ([17]; PC-3, Log10 concentration −6.0 Molar): 53%
Percent Growth ([17]; PC-3, Log10 concentration −7.0 Molar): 103%
Percent Growth ([17]; PC-3, Log10 concentration −8.0 Molar): 100%
GI50 ([18]; Homo sapiens, OVCAR-3): 10.2 µM
CC50 ([18]; Homo sapiens, OVCAR-3, read-out: LC50): > 100 µM
TGI ([18]; OVCAR-3): >1.00E−04 Molar
Percent Growth ([18]; OVCAR-3, Log10 concentration −4.0 Molar): 43%
Percent Growth ([18]; OVCAR-3, Log10 concentration −5.0 Molar): 50%
Percent Growth ([18]; OVCAR-3, Log10 concentration −6.0 Molar): 89%
Percent Growth ([18]; OVCAR-3, Log10 concentration −7.0 Molar): 105%
Percent Growth ([18]; OVCAR-3, Log10 concentration −8.0 Molar): 95%
